The NIST ThermoML archive (doi:10.1021/je030136n)
Numbers after ± are expanded uncertainties.

Assay: xn = mol fraction of the nth substance listed
Settings: Liquid, Pulse-echo method

CCCCCCC [heptane] + CCCO
speed of sound (293.1 K, 45590 kPa, x2 = 0.6027): 1414.5 ± 1.1 m/s | speed of sound (293.1 K, 91190 kPa, x2 = 0.1008): 1599 ± 1.3 m/s | speed of sound (293.1 K, 91190 kPa, x2 = 0.3008): 1594.3 ± 1.2 m/s | speed of sound (293.1 K, 111450 kPa, x2 = 0): 1674.3 ± 1.3 m/s | speed of sound (293.11 K, 45590 kPa, x2 = 0.1008): 1412 ± 1.2 m/s | speed of sound (293.11 K, 121580 kPa, x2 = 0.7986): 1691.8 ± 1.3 m/s | speed of sound (293.12 K, 100 kPa, x2 = 0.4992): 1158.2 ± 1.1 m/s | speed of sound (293.12 K, 30400 kPa, x2 = 0.7986): 1355.6 ± 1.1 m/s | speed of sound (293.12 K, 45590 kPa, x2 = 0.7986): 1424 ± 1.1 m/s | speed of sound (293.12 K, 75990 kPa, x2 = 0.7986): 1543.1 ± 1.2 m/s | speed of sound (293.13 K, 100 kPa, x2 = 0.6027): 1164.9 ± 1.1 m/s | speed of sound (293.13 K, 30400 kPa, x2 = 0.6027): 1343.3 ± 1.1 m/s | speed of sound (293.13 K, 45590 kPa, x2 = 0.4992): 1412.6 ± 1.1 m/s | speed of sound (293.13 K, 60790 kPa, x2 = 0.7986): 1486.1 ± 1.1 m/s | speed of sound (293.13 K, 75990 kPa, x2 = 0.1008): 1541.8 ± 1.2 m/s | speed of sound (293.13 K, 121580 kPa, x2 = 0.1008): 1701.6 ± 1.3 m/s | speed of sound (293.14 K, 100 kPa, x2 = 0.7016): 1173.8 ± 1 m/s | speed of sound (293.14 K, 100 kPa, x2 = 0.7986): 1185.8 ± 1 m/s | speed of sound (293.14 K, 60790 kPa, x2 = 0.6027): 1478.7 ± 1.2 m/s | speed of sound (293.14 K, 91190 kPa, x2 = 0.6027): 1592.5 ± 1.2 m/s | speed of sound (293.14 K, 101320 kPa, x2 = 0.1008): 1634.7 ± 1.3 m/s | speed of sound (293.14 K, 111450 kPa, x2 = 0.3008): 1663.3 ± 1.3 m/s | speed of sound (293.14 K, 111450 kPa, x2 = 0.7986): 1661.2 ± 1.2 m/s | speed of sound (293.15 K, 100 kPa, x2 = 0): 1151.7 ± 1.1 m/s | speed of sound (293.15 K, 75990 kPa, x2 = 0.6027): 1537.8 ± 1.2 m/s | speed of sound (293.15 K, 111450 kPa, x2 = 0.1008): 1668.9 ± 1.3 m/s | speed of sound (293.16 K, 30400 kPa, x2 = 0.7016): 1348.5 ± 1.1 m/s | speed of sound (293.16 K, 60790 kPa, x2 = 0.4992): 1478 ± 1.2 m/s | speed of sound (293.16 K, 75990 kPa, x2 = 0.4992): 1537.8 ± 1.2 m/s | speed of sound (293.16 K, 91190 kPa, x2 = 0.7986): 1595.9 ± 1.2 m/s | speed of sound (293.16 K, 101320 kPa, x2 = 0.3008): 1629.5 ± 1.3 m/s | speed of sound (293.16 K, 111450 kPa, x2 = 0.6027): 1659.8 ± 1.2 m/s | speed of sound (293.16 K, 121580 kPa, x2 = 0): 1707.1 ± 1.4 m/s | speed of sound (293.16 K, 121580 kPa, x2 = 0.7016): 1691 ± 1.3 m/s | speed of sound (293.17 K, 30400 kPa, x2 = 0.4992): 1340.5 ± 1.1 m/s | speed of sound (293.17 K, 45590 kPa, x2 = 0.7016): 1418.3 ± 1.1 m/s | speed of sound (293.17 K, 101320 kPa, x2 = 0.7986): 1629.2 ± 1.2 m/s | speed of sound (293.17 K, 121580 kPa, x2 = 0.3008): 1695.5 ± 1.3 m/s | speed of sound (293.18 K, 30400 kPa, x2 = 0): 1341.5 ± 1.2 m/s | speed of sound (293.18 K, 60790 kPa, x2 = 0.7016): 1481.6 ± 1.1 m/s | speed of sound (293.18 K, 101320 kPa, x2 = 0.6027): 1626.9 ± 1.2 m/s | speed of sound (293.18 K, 111450 kPa, x2 = 0.7016): 1659.9 ± 1.2 m/s | speed of sound (293.18 K, 121580 kPa, x2 = 0.6027): 1691.2 ± 1.3 m/s | speed of sound (293.19 K, 45590 kPa, x2 = 0): 1416.6 ± 1.2 m/s | speed of sound (293.19 K, 60790 kPa, x2 = 0.1008): 1479.6 ± 1.2 m/s | speed of sound (293.19 K, 60790 kPa, x2 = 0.3008): 1476.8 ± 1.2 m/s | speed of sound (293.19 K, 91190 kPa, x2 = 0.4992): 1592.6 ± 1.2 m/s | speed of sound (293.19 K, 101320 kPa, x2 = 0.7016): 1627.5 ± 1.2 m/s | speed of sound (293.2 K, 15200 kPa, x2 = 0): 1256.3 ± 1.1 m/s | speed of sound (293.2 K, 60790 kPa, x2 = 0): 1484.5 ± 1.2 m/s | speed of sound (293.2 K, 75990 kPa, x2 = 0): 1546.5 ± 1.3 m/s | speed of sound (293.2 K, 75990 kPa, x2 = 0.3008): 1537.7 ± 1.2 m/s | speed of sound (293.2 K, 75990 kPa, x2 = 0.7016): 1539.8 ± 1.2 m/s | speed of sound (293.2 K, 91190 kPa, x2 = 0): 1603.7 ± 1.3 m/s | speed of sound (293.2 K, 91190 kPa, x2 = 0.7016): 1593.7 ± 1.2 m/s | speed of sound (293.2 K, 101320 kPa, x2 = 0): 1639.7 ± 1.3 m/s | speed of sound (293.21 K, 100 kPa, x2 = 0.3008): 1149.9 ± 1.1 m/s | speed of sound (293.21 K, 30400 kPa, x2 = 0.3008): 1336.5 ± 1.1 m/s | speed of sound (293.21 K, 101320 kPa, x2 = 0.4992): 1627.3 ± 1.2 m/s | speed of sound (293.21 K, 111450 kPa, x2 = 0.4992): 1660.5 ± 1.3 m/s | speed of sound (293.22 K, 100 kPa, x2 = 0.1008): 1147.3 ± 1.1 m/s | speed of sound (293.22 K, 15200 kPa, x2 = 0.1008): 1252 ± 1.1 m/s | speed of sound (293.22 K, 30400 kPa, x2 = 0.1008): 1337 ± 1.1 m/s | speed of sound (293.22 K, 45590 kPa, x2 = 0.3008): 1410.2 ± 1.2 m/s | speed of sound (293.23 K, 121580 kPa, x2 = 0.4992): 1692.2 ± 1.3 m/s | speed of sound (298.06 K, 121580 kPa, x2 = 0.6027): 1679 ± 1.3 m/s | speed of sound (298.1 K, 101320 kPa, x2 = 0.3008): 1616 ± 1.3 m/s | speed of sound (298.11 K, 75990 kPa, x2 = 0): 1531.6 ± 1.3 m/s | speed of sound (298.13 K, 100 kPa, x2 = 0.4992): 1137 ± 1.1 m/s | speed of sound (298.13 K, 101320 kPa, x2 = 0.4992): 1614.4 ± 1.2 m/s | speed of sound (298.13 K, 111450 kPa, x2 = 0): 1660.5 ± 1.5 m/s | speed of sound (298.13 K, 111450 kPa, x2 = 0.6027): 1647.1 ± 1.2 m/s | speed of sound (298.13 K, 111450 kPa, x2 = 0.7986): 1649.2 ± 1.2 m/s | speed of sound (298.14 K, 91190 kPa, x2 = 0.4992): 1579.3 ± 1.2 m/s | speed of sound (298.14 K, 111450 kPa, x2 = 0.3008): 1650.1 ± 1.3 m/s | speed of sound (298.14 K, 121580 kPa, x2 = 0): 1692.4 ± 1.4 m/s | speed of sound (298.14 K, 121580 kPa, x2 = 0.1008): 1688.8 ± 1.3 m/s | speed of sound (298.14 K, 121580 kPa, x2 = 0.4992): 1679.9 ± 1.3 m/s | speed of sound (298.15 K, 100 kPa, x2 = 0.1008): 1125.7 ± 1.1 m/s | speed of sound (298.15 K, 30400 kPa, x2 = 0.4992): 1323.2 ± 1.1 m/s | speed of sound (298.15 K, 30400 kPa, x2 = 0.7986): 1339.6 ± 1.1 m/s | speed of sound (298.15 K, 60790 kPa, x2 = 0.4992): 1462.7 ± 1.2 m/s | speed of sound (298.15 K, 75990 kPa, x2 = 0.4992): 1523.3 ± 1.2 m/s | speed of sound (298.15 K, 91190 kPa, x2 = 0): 1589.4 ± 1.3 m/s | speed of sound (298.15 K, 101320 kPa, x2 = 0.6027): 1613.9 ± 1.2 m/s | speed of sound (298.15 K, 111450 kPa, x2 = 0.4992): 1647.9 ± 1.3 m/s | speed of sound (298.15 K, 121580 kPa, x2 = 0.3008): 1682.7 ± 1.3 m/s | speed of sound (298.16 K, 100 kPa, x2 = 0): 1129.9 ± 1.1 m/s | speed of sound (298.16 K, 45590 kPa, x2 = 0.1008): 1395.7 ± 1.2 m/s | speed of sound (298.16 K, 45590 kPa, x2 = 0.4992): 1396.7 ± 1.1 m/s | speed of sound (298.16 K, 45590 kPa, x2 = 0.7986): 1408.9 ± 1.1 m/s | speed of sound (298.16 K, 101320 kPa, x2 = 0): 1625.7 ± 1.3 m/s | speed of sound (298.16 K, 101320 kPa, x2 = 0.1008): 1620.6 ± 1.3 m/s | speed of sound (298.16 K, 111450 kPa, x2 = 0): 1660.4 ± 1.5 m/s | speed of sound (298.17 K, 100 kPa, x2 = 0.7986): 1166.7 ± 1 m/s | speed of sound (298.17 K, 15200 kPa, x2 = 0.1008): 1232.9 ± 1.1 m/s | speed of sound (298.17 K, 30400 kPa, x2 = 0.1008): 1319.5 ± 1.1 m/s
